Data from US20050008715A1, “Method for preventing fungal growth in plants” (priority 2003, published 2005).
Marks after values point to notes of the source that are not given here.

Key:
Type in all cases: cell-based
[1] = system: Pythium and Phytophthora species; assay: Mycelial growth in amended basal nutrient solution; conditions: basal nutrient solution amended with metalaxyl
Protocol: (§1) The efficacy of the garlic extract was tested against […] soil-borne fungi that cause root and lower stem rots of plants. The fungal pathogens included: Pythium aphanidermatum, Pythium irregular, Pythium ultimum, Phytophthora capsici, Phytophthora cinnamomi, Phytophthora nicotiana, Rhizoctonia solani, Fusarium oxysporum f.sp. lycopersici, Fusarium oxysporum f.sp. spinaciae, and Thielaviopsis basicola. All isolates used in this investigation were known to be pathogenic to various cultivated plant species.
All isolates of Pythium aphanidermatum, Pythium irregular, Pythum ultimum, Phytophthora capsici, Phytophthora cinnamomi, Phytophthora nicotiana, Rhizoctonia solani, Fusarium oxysporum f.sp. lycopersici, Fusarium oxysporum f.sp. spinaciae were grown on standard corn meal agar (CMA) for 8 to 9 days. Plugs from inoculum plates were taken using a #4 cork borer (5 mm diameter). Inoculum plugs were placed into 5-cm sterile plastic petri dishes containing 10 ml of a basal nutrient solution that consisted of 60% (v/v) clarified V-8 juice and sterile distilled water (SDW). Basal nutrient solutions were amended with the appropriate treatments. […] Cultures were placed into a growth chamber and maintained in the dark at 22(C(1(C. After 48 hours, mycelial growth (if any was visible) from culture plugs was measured.

[2] = system: Pythium irregular; assay: Mycelial growth from inoculum plugs in amended basal nutrient solution; conditions: 48 hours
Protocol: as §1
(§2) All isolates of Pythium aphanidermatum, Pythium irregular, Pythum ultimum, Phytophthora capsici, Phytophthora cinnamomi, Phytophthora nicotiana, Rhizoctonia solani, Fusarium oxysporum f.sp. lycopersici, Fusarium oxysporum f.sp. spinaciae were grown on standard corn meal agar (CMA) for 8 to 9 days. Plugs from inoculum plates were taken using a #4 cork borer (5 mm diameter). Inoculum plugs were placed into 5-cm sterile plastic petri dishes containing 10 ml of a basal nutrient solution that consisted of 60% (v/v) clarified V-8 juice and sterile distilled water (SDW). Basal nutrient solutions were amended with the appropriate treatments. Treatments included SDW (non-treated control), a fungicidal agent appropriate to each species (metylaxyl for the Pythium and Phytophthora species, PCNB for Rhizoctonia, and Allegiance(r) for Fusarium), or 10%, 15%, 20%, 25%, or 30% (v/v) garlic extract. Cultures were placed into a growth chamber and maintained in the dark at 22(C(1(C. After 48 hours, mycelial growth (if any was visible) from culture plugs was measured.

[3] = system: Phytophthora capsici; assay: as above; conditions: 48 hours
Protocol: as §1, §2

[4] = system: Phytophthora cinnamomi; assay: as above; conditions: 48 hours
Protocol: as §1, §2

[5] = system: Pythium ultimum; assay: as above; conditions: 48 hours
Protocol: as §1, §2

[6] = system: Phytophthora nicotiana; assay: as above; conditions: 48 hours
Protocol: as §1, §2

[7] = system: Pythium aphanidermatum; assay: as above; conditions: 48 hours
Protocol: as §1, §2

[8] = system: Rhizoctonia solani; assay: as above; conditions: for Growth of Rhizoctonia on amended basal nutrient solution: PCNB
Protocol: as §1, §2

[9] = Fungicide control (Metylaxyl) in basal nutrient solution
[10] = Fungicide control (Metylaxyl), from edge of inoculum plug

SMILES	Pythium and Phytophthora species that grew from the inoculum plugs [1]	Plates with visible mycelial growth (%) [2, 9]	Measured growth (cm) [2, 10]	Plates with visible mycelial growth (%) [3, 9]	Measured growth (cm) [3, 10]	Plates with visible mycelial growth (%) [4, 9]	Measured growth (cm) [4, 10]	Plates with visible mycelial growth (%) [5, 9]	Measured growth (cm) [5, 10]	Plates with visible mycelial growth (%) [6, 9]	Measured growth (cm) [6, 10]	Plates with visible mycelial growth (%) [7, 9]	Measured growth (cm) [7, 10]	Plates with visible mycelial growth (%) ([8]; Fungicide control (PCNB) in basal nutrient solution, 48 hours)	Measured growth (cm) ([8]; Fungicide control (PCNB), 48 hours, from edge of inoculum plug)	Growth of Rhizoctonia on amended basal nutrient solution ([8]; first replication, inappropriate PCNB concentration)	Growth of Rhizoctonia on amended basal nutrient solution ([8]; second replication)
COCC(=O)N(c1c(C)cccc1C)C(C)C(=O)OC (centres unmarked) [Metylaxyl]	none	0%	0 cm	0%	0 cm	0%	0 cm	0%	0 cm	0%	0 cm	0%	0 cm				
O=[N+]([O-])c1c(Cl)c(Cl)c(Cl)c(Cl)c1Cl [PCNB]														50^x %	0.3 cm	limited amount of growth	did not grow
